{"source": "patent US10100056B2", "about": "“SHIP1 modulators and methods related thereto” (Aquinox Pharmaceuticals (Canada) Inc., priority 2013, dated 2018)"}
{"target": "T1, His-hSHIP1 enzyme (Homo sapiens, UniProt Q92835)", "T1 construct": "His", "T1 sequence (Q92835 1-1189)": "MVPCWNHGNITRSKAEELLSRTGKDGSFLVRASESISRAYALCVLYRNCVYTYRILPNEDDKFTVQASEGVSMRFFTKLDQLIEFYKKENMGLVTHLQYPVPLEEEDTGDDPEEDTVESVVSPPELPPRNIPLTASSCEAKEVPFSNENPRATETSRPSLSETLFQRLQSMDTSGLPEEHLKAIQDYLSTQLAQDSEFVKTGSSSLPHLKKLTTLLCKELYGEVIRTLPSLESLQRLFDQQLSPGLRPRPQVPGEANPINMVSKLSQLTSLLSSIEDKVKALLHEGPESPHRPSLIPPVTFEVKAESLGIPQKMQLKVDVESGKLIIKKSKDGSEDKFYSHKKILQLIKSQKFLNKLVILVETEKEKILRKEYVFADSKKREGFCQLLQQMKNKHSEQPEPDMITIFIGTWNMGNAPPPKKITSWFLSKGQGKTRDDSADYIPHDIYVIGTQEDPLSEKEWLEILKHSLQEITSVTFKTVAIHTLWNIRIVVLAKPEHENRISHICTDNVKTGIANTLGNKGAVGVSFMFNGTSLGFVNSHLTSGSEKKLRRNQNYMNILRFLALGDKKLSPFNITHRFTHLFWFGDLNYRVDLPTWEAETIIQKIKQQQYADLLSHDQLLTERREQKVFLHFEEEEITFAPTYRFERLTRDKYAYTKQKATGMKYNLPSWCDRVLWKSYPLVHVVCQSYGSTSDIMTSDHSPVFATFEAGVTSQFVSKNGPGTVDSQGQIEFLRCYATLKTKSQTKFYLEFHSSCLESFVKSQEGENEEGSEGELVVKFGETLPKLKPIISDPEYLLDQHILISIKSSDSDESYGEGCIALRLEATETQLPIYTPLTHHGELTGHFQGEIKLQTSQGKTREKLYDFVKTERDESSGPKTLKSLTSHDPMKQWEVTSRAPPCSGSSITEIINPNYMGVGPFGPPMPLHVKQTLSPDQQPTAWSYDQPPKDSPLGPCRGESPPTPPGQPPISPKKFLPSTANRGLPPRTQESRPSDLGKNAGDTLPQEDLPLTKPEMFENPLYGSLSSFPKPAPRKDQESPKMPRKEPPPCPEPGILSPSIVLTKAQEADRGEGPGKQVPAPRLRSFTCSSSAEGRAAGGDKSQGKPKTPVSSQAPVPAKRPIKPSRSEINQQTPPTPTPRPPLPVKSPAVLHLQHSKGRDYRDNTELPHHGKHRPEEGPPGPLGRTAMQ", "experiment": "His-hSHIP1 activity (phosphatase assay, IP4 substrate, Biomol Green)", "assay_type": "biochemical", "set-up": "key to Scoring, Approach 2 (Initial velocity Ratio): +++: higher than reference or reference - 15%; ++: reference - 16% to reference - 30%; +: reference - 31% or lower; −: inhibitor", "conditions": "second approach: ratio of initial velocities IP4 25/250 μM compared with reference compound; values without asterisk", "experimental": "Test compounds are dissolved in 95% ethanol to form stock solutions. Before screening, the stock solutions are diluted with Phosphatase Assay Buffer (20 mM Tris-HCL, 10 mM MgCl2 pH 7.5, 0.02% Tween 20) to form working assay solutions that contain 10% ethanol. The assay is carried out on 96-well microtiter plates using a modified procedure of that reported by Ong et al., Blood 110, 1942-1949, 2007 and Yang et al., Org Lett 7, 1073-1076, 2005, both of which references are incorporated herein by reference in their entirety.\nData were generated by one of two variant methods. Test compounds are screened by one of two approaches described as follows. In the first approach, each reaction contains 5 μL of His-hSHIP1 enzyme (5-20 ng), 10 μL of the substrate, 1,3,4,5-inositol tetrakisphosphate (IP4; 50 μM final), 5 μL of Phosphatase Assay Buffer, and 5 µL of test compound at various concentrations in 10% ethanol (0-300 μM final). Control blanks are also prepared by replacing His-hSHIP1 enzyme, IP4, or test compounds with Phosphatase Assay Buffer. After adding the reaction components in a 96-well microtiter plate on ice, the reaction is mixed by briefly shaking the plate vigorously. The reaction is then incubated at 37° C. for 15 min with gentle shaking followed by addition of 100 μL of Biomol Green Reagent (BIOMOL, PA, USA) to terminate the reaction. The free phosphate released from IP4 by His-hSHIP1 binds to the Biomol Green Reagent, which turns the dye to green color. After incubating the mixture for 20 min at room temperature for color development, the absorbance is read with SpectraMax Plus 96-well plate reader (Molecular Devices, Sunnyvale, Calif., USA) at a wavelength of 650 nm.\nIn the second approach, a master mix is prepared that contains 50 μL of His-hSHIP1 enzyme (0.4-1.6 ng/μL final), 25 μL of the substrate, IP4 (25 or 250 μM final), and 50 μL of test compound in 3.3% ethanol (100 μL final). Control blanks are also prepared by replacing His-hSHIP1 enzyme, IP4, or test compounds with Phosphate Assay Buffer. […] Each reaction component is preincubated at 37° C. for 30 min before adding to a 96-well microtiter plate. The master mix is then incubated at 37° C. At time 0, 20, and 30 min, 25 μL of the master mix is removed and transferred to a new 96-well microtiter plate, to which 100 μL of Biomol Green Reagent is added to stop the reaction. After incubating the mixture for 20 min at room temperature for color development, the absorbance is read with SpectraMax Plus 96-well plate reader at a wavelength of 650 nm. Phosphate released is plotted against time to calculate the initial velocities (i.e., slope of the graph) at each IP4 concentration. The initial velocities are baseline corrected and the ratio of initial velocities (IP425/IP4250) is calculated and used to rate the test compounds."}
{"smiles": "CC1(C)CCC2=C1CC[C@H]([C@@]1(C)CC[C@H](O)C[C@@H]1CO)[C@H]2CNCC1CC1", "note": "[Cpd. No. 2, (1S,3S,4R)-4-((4R,5S)-4-((cyclopropylmethylamino)methyl)-1,1-dimethyl-2,3,4,5,6,7-hexahydro-1H-inden-5-yl)-3-(hydroxymethyl)-4-methylcyclohexanol]", "Scoring, Approach 2 (Initial velocity Ratio)": "+"}
{"smiles": "CC(=O)NC[C@H]1C2=C(CC[C@@H]1[C@@]1(C)CC[C@H](O)C[C@@H]1CO)C(C)(C)CC2", "note": "[Cpd. No. 4, N-(((4R,5S)-5-((1R,2S,4S)-4-hydroxy-2-(hydroxymethyl)-1-methylcyclohexyl)-1,1-dimethyl-2,3,4,5,6,7-hexahydro-1H-inden-4-yl)methyl)acetamide]", "Scoring, Approach 2 (Initial velocity Ratio)": "+"}
{"smiles": "CNC[C@H]1C2=C(CC[C@@H]1[C@@]1(C)CC[C@H](O)C[C@@H]1CO)C(C)(C)CC2", "note": "[Cpd. No. 5, (1S,3S,4R)-4-((4R,5S)-1,1-dimethyl-4-((methylamino)methyl)-2,3,4,5,6,7-hexahydro-1H-inden-5-yl)-3-(hydroxymethyl)-4-methylcyclohexanol]", "Scoring, Approach 2 (Initial velocity Ratio)": "+++"}
{"smiles": "CC1(C)CCC2=C1CC[C@H]([C@@]1(C)CC[C@H](O)C[C@@H]1CO)[C@H]2CNS(C)(=O)=O", "note": "[Cpd. No. 7, N-(((4R,5S)-5-((1R,2S,4S)-4-hydroxy-2-(hydroxymethyl)-1-methylcyclohexyl)-1,1-dimethyl-2,3,4,5,6,7-hexahydro-1H-inden-4-yl)methyl)methanesulfonamide]", "Scoring, Approach 2 (Initial velocity Ratio)": "+"}
{"smiles": "CC1(C)CCC2=C1CC[C@H]([C@@]1(C)CC[C@H](O)C[C@@H]1CO)[C@H]2CNC(=O)c1ccccc1", "note": "[Cpd. No. 8, N-(((4R,5S)-5-((1R,2S,4S)-4-hydroxy-2-(hydroxymethyl)-1-methylcyclohexyl)-1,1-dimethyl-2,3,4,5,6,7-hexahydro-1H-inden-4-yl)methyl)benzamide]", "Scoring, Approach 2 (Initial velocity Ratio)": "+"}
{"smiles": "C=C1CC[C@H]2[C@H](CNCc3ccc(F)cc3)[C@@H]([C@@]3(C)CC[C@H](O)C[C@@H]3CO)CC[C@]12C", "note": "[Cpd. No. 10, (1S,3S,4R)-4-((3aS,4R,5S,7aS)-4-((4-fluorobenzylamino)methyl)-7a-methyl-1-methyleneoctahydro-1H-inden-5-yl)-3-(hydroxymethyl)-4-methylcyclohexanol]", "Scoring, Approach 2 (Initial velocity Ratio)": "−"}
{"smiles": "C=C1CC[C@H]2[C@H](CNCc3ccccc3C)[C@@H]([C@@]3(C)CC[C@H](O)C[C@@H]3CO)CC[C@]12C", "note": "[Cpd. No. 15, (1S,3S,4R)-3-(hydroxymethyl)-4-methyl-4-((3aS,4R,5S,7aS)-7a-methyl-4-((2-methylbenzylamino)methyl)-1-methyleneoctahydro-1H-inden-5-yl)cyclohexanol]", "Scoring, Approach 2 (Initial velocity Ratio)": "++"}
{"tested_on": "Akt phosphorylation in Molt-4 (PTEN-/SHIP1+) cells", "experiment": "Akt phosphorylation in lymphocytes (Western blot, IGF-1 stimulated)", "assay_type": "cell-based", "set-up": "key: +: inhibits Akt phosphorylation at 30 μM; −: no effect on Akt phosphorylation at 30 μM", "conditions": "30 μM; Molt-4 (SHIP1+) cells, IGF-1 100 ng/mL", "experimental": "Molt-4 (PTEN-/SHIP1+) cells are starved in serum free RPMI for overnight. In a 15 mL conical tube, 2-3 million serum starved cells (1 million cells per mL) are treated with various concentrations of test compound ([…]) for 30 min at 37° C. followed by stimulation with 100 ng/mL of IGF-1 for 1 hour at 37° C. After stimulation, cells are washed once with ice-cold DPBS and lysed with Lysis Buffer (20 mM Tris-HCl, pH 7.5, 140 mM NaCl, 1% NP-40, Complete Mini Protease Inhibitor Cocktail, 10 mM NaF, 1 mM Na3VO4, 1 mM β-glycerolphosphate) on ice for 30 min with vortexing every 10 min. Samples are then centrifuged at 13,000 rpm for 20 min, and supernatants are collected as total cell lysate samples. Protein concentration is determined using bicinchonic acid assay, and about 15 μg of total protein from each sample is loaded and separated on a 4-12% Tris-Glycine gel. After SDS-PAGE, proteins are transferred from the gel to a nitrocellulose membrane. The membrane is blocked in 5% BSA in PBS containing 0.1% Tween-20 (PBS-T) for 1 hour at room temperature before probing with primary antibodies for overnight at 4° C. The following antibodies are used: mouse anti-SHIP1 (1:500 dilution; Santa Cruz, Calif., USA), rabbit anti-phospho-Akt (Ser473) (1:1000 dilution; Cell Signaling Technologies, MA, USA), rabbit anti-Akt (1:1000; Cell Signaling Technologies, MA, USA), and rabbit anti-actin (1:2000; Cell Signaling Technologies, MA, USA). The membrane is then incubated with goat anti-rabbit or anti-mouse secondary antibodies (1:3000) for 1 hour at room temperature. Target proteins on the membrane are detected with ECL solution and exposed on a film."}
{"smiles": "C=C1CC[C@H]2[C@H](CC(N)=O)[C@@H]([C@@]3(C)CC[C@H](O)C[C@@H]3CO)CC[C@]12C", "note": "[Cpd. No. 90, 2-((3aS,4R,5S,7aS)-5-((1R,2S,4S)-4-hydroxy-2-(hydroxymethyl)-1-methylcyclohexyl)-7a-methyl-1-methyleneoctahydro-1H-inden-4-yl)acetamide]", "Molt-4 (SHIP+): inhibition of Akt phosphorylation": "+"}
{"smiles": "C=C1CC[C@H]2[C@H](O)[C@@H]([C@@]3(C)CC[C@H](O)C[C@@H]3CCC#N)CC[C@]12C", "note": "[Cpd. No. 94, 3-((1S,2S,5S)-5-hydroxy-2-((3aR,4R,5R,7aS)-4-hydroxy-7a-methyl-1-methyleneoctahydro-1H-inden-5-yl)-2-methylcyclohexyl)propanenitrile]", "Molt-4 (SHIP+): inhibition of Akt phosphorylation": "+"}
{"smiles": "C=C1CC[C@H]2[C@H](O)[C@@H]([C@@]3(C)CC[C@H](O)C[C@@H]3CCC(N)=O)CC[C@]12C", "note": "[Cpd. No. 95, 3-((1S,2S,5S)-5-hydroxy-2-((3aR,4R,5R,7aS)-4-hydroxy-7a-methyl-1-methyleneoctahydro-1H-inden-5-yl)-2-methylcyclohexyl)propanamide]", "Molt-4 (SHIP+): inhibition of Akt phosphorylation": "+"}
{"smiles": "C=C1CC[C@H]2[C@H](O)[C@@H]([C@@]3(C)CC[C@H](O)C[C@H]3CCC(=O)O)CC[C@]12C", "note": "[Cpd. No. 97, 3-((1R,2S,5S)-5-hydroxy-2-((3aR,4R,5R,7aS)-4-hydroxy-7a-methyl-1-methyleneoctahydro-1H-inden-5-yl)-2-methylcyclohexyl)propanoic acid]", "Molt-4 (SHIP+): inhibition of Akt phosphorylation": "+"}
{"smiles": "C=C1CC[C@H]2[C@H](C(=O)O)[C@@H]([C@@]3(C)CC[C@H](O)C[C@H]3CO)CC[C@]12C", "note": "[Cpd. No. 98, (3aS,4R,5S,7aS)-5-((1R,2R,4S)-4-hydroxy-2-(hydroxymethyl)-1-methylcyclohexyl)-7a-methyl-1-methyleneoctahydro-1H-indene-4-carboxylic acid]", "Molt-4 (SHIP+): inhibition of Akt phosphorylation": "+"}
